Reference: patent US20090155209A1, “NOVEL MACROCYCLIC INHIBITORS OF HEPATITIS C VIRUS REPLICATION” (priority 2007, published 2009)

Key:
NS3-NS4 [1] = target: T1, NS3-NS4 (Hepatitis C virus genotype 1a, UniProt P27958); assay: NS3-NS4 activity, IC50 (Example 37, Table 8); format: biochemical
NS3-NS4 [2] = target: T1, NS3-NS4; assay: cell-based; conditions: EC50, NS3-NS4 activity

T1 sequence (P27958 1027-1657): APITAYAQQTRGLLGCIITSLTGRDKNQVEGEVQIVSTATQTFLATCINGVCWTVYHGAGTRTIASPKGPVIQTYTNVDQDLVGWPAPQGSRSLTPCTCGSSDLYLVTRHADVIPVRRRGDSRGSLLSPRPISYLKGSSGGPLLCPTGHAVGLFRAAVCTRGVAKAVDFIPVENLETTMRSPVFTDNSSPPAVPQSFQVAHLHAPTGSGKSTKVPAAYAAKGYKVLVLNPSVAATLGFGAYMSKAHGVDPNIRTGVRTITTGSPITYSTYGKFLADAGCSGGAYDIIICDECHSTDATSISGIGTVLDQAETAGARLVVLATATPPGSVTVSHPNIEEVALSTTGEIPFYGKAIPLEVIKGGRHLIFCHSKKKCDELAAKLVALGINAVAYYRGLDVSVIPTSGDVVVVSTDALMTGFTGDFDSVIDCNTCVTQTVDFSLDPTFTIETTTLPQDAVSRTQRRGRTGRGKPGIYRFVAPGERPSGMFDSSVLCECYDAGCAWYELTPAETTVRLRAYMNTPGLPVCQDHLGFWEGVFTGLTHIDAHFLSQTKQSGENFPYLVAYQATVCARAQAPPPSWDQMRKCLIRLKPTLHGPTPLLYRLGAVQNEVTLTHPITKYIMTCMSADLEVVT
T1 sequence (P27958 1658-1711): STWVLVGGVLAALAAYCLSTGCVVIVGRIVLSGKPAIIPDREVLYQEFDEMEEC

Row | Compound | IC50 (NS3-NS4 [1]) | EC50 (NS3-NS4 [2])
1 | CC(C)(C)OC(=O)N[C@H]1CCCCC/C=C\[C@@H]2C[C@@]2(C(=O)NS(=O)(=O)c2ccc(Cl)cc2Cl)NC(=O)[C@@H]2C[C@@H](OC(=O)N3Cc4cccc(F)c4C3)CN2C1=O [Compound 348] | < 100 nM | < 100 nM
2 | O=C1NC2(C(=O)NS(=O)(=O)C3CC3)C[C@H]2/C=C\CCCCC[C@H](Nc2nc(-c3ccc(F)cc3)cs2)C(=O)N2C[C@H](OC(=O)N3Cc4cccc(F)c4C3)C[C@@H]12 (stereo partly drawn) [Compound 224] | < 100 nM | < 100 nM
3 | C=CCC1(S(=O)(=O)NC(=O)[C@@]23C[C@H]2CCCCCCC[C@H](NC(=O)OC(C)(C)C)C(=O)N2C[C@H](OC(=O)N4Cc5cccc(F)c5C4)C[C@H]2C(=O)N3)CC1 [Compound 649] | < 100 nM | < 100 nM
4 | CC(C)CS(=O)(=O)NC(=O)[C@@]12C[C@H]1/C=C\CCCCC[C@H](NC(=O)OC(C)(C)C)C(=O)N1C[C@H](OC(=O)N3Cc4cccc(F)c4C3)C[C@H]1C(=O)N2 [Compound 551] | < 100 nM | < 100 nM
5 | CC(C)(C)OC(=O)N[C@H]1CCCCC/C=C\[C@@H]2C[C@@]2(C(=O)NS(=O)(=O)c2cc(F)ccc2F)NC(=O)[C@@H]2C[C@@H](OC(=O)N3Cc4cccc(F)c4C3)CN2C1=O [Compound 307] | < 100 nM | < 100 nM
6 | O=C1N[C@]2(C(=O)NS(=O)(=O)C3CC3)C[C@H]2/C=C\CCCCC[C@H](Nc2nc(-c3ccc(F)cc3)cs2)C(=O)N2C[C@H](Oc3nc(-c4ccccc4)nc4ccccc34)C[C@@H]12 [Compound 204, (2R,6S,13aS,14aR,16aS,Z)-N-(cyclopropylsulfonyl)-6-(4-(4-fluorophenyl)thiazol-2-ylamino)-5,16-dioxo-2-(2-phenylquinazolin-4-yloxy)-1,2,3,5,6,7,8,9,10,11,13a,14,14a,15,16,16a-hexadecahydrocyclopropa[e]pyrrolo[1,2-a][1,4]diazacyclopentadecine-14a-carboxamide] | < 100 nM | < 100 nM
7 | Cc1cc(S(=O)(=O)NC(=O)[C@@]23C[C@H]2/C=C\CCCCC[C@H](NC(=O)OC(C)(C)C)C(=O)N2C[C@H](OC(=O)N4Cc5cccc(F)c5C4)C[C@H]2C(=O)N3)oc1C [Compound 534] | < 100 nM | 100 to 1000 nM
8 | Cc1cccc(CS(=O)(=O)NC(=O)[C@@]23C[C@H]2/C=C\CCCCC[C@H](NC(=O)OC(C)(C)C)C(=O)N2C[C@H](OC(=O)N4Cc5cccc(F)c5C4)C[C@H]2C(=O)N3)c1 [Compound 514] | < 100 nM | 100 to 1000 nM
9 | Cc1ccc(C)c(ONC(=O)[C@@]23C[C@H]2CCCCCCC[C@H](NC(=O)OC(C)(C)C)C(=O)N2C[C@H](OC(=O)N4Cc5cccc(F)c5C4)C[C@H]2C(=O)N3)c1 [Compound 806] | < 100 nM | 1000 to 10000 nM
10 | O=C1N[C@]2(C(=O)NS(=O)(=O)C3CC3)C[C@H]2/C=C\CCCCC[C@H](NC(=O)N2CCCCC2)C(=O)N2C[C@H](OC(=O)N3Cc4cccc(F)c4C3)C[C@@H]12 [Compound 415] | < 100 nM | < 100 nM
11 | N#Cc1ccc(-c2csc(N[C@H]3CCCCC/C=C\[C@@H]4C[C@@]4(C(=O)NS(=O)(=O)C4CC4)NC(=O)[C@@H]4C[C@@H](OC(=O)N5Cc6cccc(F)c6C5)CN4C3=O)n2)cc1 [Compound 211] | < 100 nM | < 100 nM
12 | CC(C)(C)OC(=O)N[C@H]1CCCCCCC[C@@H]2C[C@@]2(C(=O)NS(=O)(=O)c2ccccc2C(F)(F)F)NC(=O)[C@@H]2C[C@@H](OC(=O)N3Cc4cccc(F)c4C3)CN2C1=O [Compound 605] | < 100 nM | < 100 nM
13 | CCC(C)(C)OC(=O)N[C@H]1CCCCC/C=C\[C@@H]2C[C@@]2(C(=O)NS(=O)(=O)c2cc(Cl)sc2Cl)NC(=O)[C@@H]2C[C@@H](OC(=O)N3Cc4cccc(F)c4C3)CN2C1=O [Compound 344] | < 100 nM | < 100 nM
14 | O=C(N[C@H]1CCCCC/C=C\[C@@H]2C[C@@]2(C(=O)NS(=O)(=O)C2CC2)NC(=O)[C@@H]2C[C@@H](OC(=O)N3Cc4cccc(F)c4C3)CN2C1=O)OCC1CC1 [Compound 434] | < 100 nM | < 100 nM
15 | COCC1(S(=O)(=O)NC(=O)[C@@]23C[C@H]2CCCCCCC[C@H](NC(=O)OC(C)(C)C)C(=O)N2C[C@H](OC(=O)N4Cc5cccc(F)c5C4)C[C@H]2C(=O)N3)CC1 [Compound 652] | < 100 nM | < 100 nM
16 | CC(C)COC(=O)N[C@H]1CCCCC/C=C\[C@@H]2C[C@@]2(C(=O)NS(=O)(=O)c2ccc(Cl)cc2)NC(=O)[C@@H]2C[C@@H](OC(=O)N3Cc4cccc(F)c4C3)CN2C1=O [Compound 341] | < 100 nM | < 100 nM
17 | Cc1ccc(S(=O)(=O)NC(=O)[C@@]23C[C@H]2/C=C\CCCCC[C@H](NC(=O)OC(C)(C)C)C(=O)N2C[C@H](OC(=O)N4Cc5cccc(F)c5C4)C[C@H]2C(=O)N3)cc1Cl [Compound 312] | < 100 nM | 100 to 1000 nM
18 | CC(C)(C)OC(=O)N[C@H]1CCCCC[C@H]2C[C@H]2[C@@H]2C[C@@]2(C(=O)NS(=O)(=O)C2CC2)NC(=O)[C@@H]2C[C@@H](OC(=O)N3Cc4cccc(F)c4C3)CN2C1=O [Compound 904] | < 100 nM | < 100 nM

Row | Compound | IC50 (NS3-NS4 [1]) | EC50 (NS3-NS4 [2])
19 | CC(C)COC(=O)N[C@H]1CCCCC/C=C\[C@@H]2C[C@@]2(C(=O)NS(=O)(=O)c2cc(Cl)sc2Cl)NC(=O)[C@@H]2C[C@@H](OC(=O)N3Cc4cccc(F)c4C3)CN2C1=O [Compound 342] | < 100 nM | < 100 nM
20 | CC(C)(C)ONC(=O)[C@@]12C[C@H]1/C=C\CCCCC[C@H](NC(=O)OC(C)(C)C)C(=O)N1C[C@H](OC(=O)N3Cc4cccc(Cl)c4C3)C[C@H]1C(=O)N2 [Compound 108] | < 100 nM | < 100 nM
21 | CC(C)(C)OC(=O)N[C@H]1CCCCC/C=C\[C@@H]2C[C@@]2(C(=O)NS(=O)(=O)Cc2ccc(Cl)c(Cl)c2)NC(=O)[C@@H]2C[C@@H](OC(=O)N3Cc4cccc(F)c4C3)CN2C1=O [Compound 526] | < 100 nM | 100 to 1000 nM
22 | CC(C)(C)OC(=O)N[C@H]1CCCCC/C=C\[C@@H]2C[C@@]2(C(=O)NS(=O)(=O)c2cc(Cl)sc2Cl)NC(=O)[C@@H]2C[C@@H](OC(=O)N3Cc4ccccc4C3)CN2C1=O [Compound 319] | < 100 nM | < 100 nM
23 | CC1(COC(=O)N[C@H]2CCCCC/C=C\[C@@H]3C[C@@]3(C(=O)NS(=O)(=O)C3CC3)NC(=O)[C@@H]3C[C@@H](OC(=O)N4Cc5cccc(F)c5C4)CN3C2=O)CC1 [Compound 435] | < 100 nM | < 100 nM
24 | O=C1N[C@]2(C(=O)NS(=O)(=O)C3CC3)C[C@H]2/C=C\CCCCC[C@H](Nc2nc(-c3ccccc3Cl)cs2)C(=O)N2C[C@H](OC(=O)N3Cc4cccc(F)c4C3)C[C@@H]12 [Compound 209] | < 100 nM | < 100 nM
25 | Cc1ccc(C)c(S(=O)(=O)NC(=O)[C@@]23C[C@H]2/C=C\CCCCC[C@H](NC(=O)OC(C)(C)C)C(=O)N2C[C@H](OC(=O)N4Cc5cccc(F)c5C4)C[C@H]2C(=O)N3)c1 [Compound 313] | < 100 nM | < 100 nM
26 | O=C1N[C@]2(C(=O)NS(=O)(=O)C3CC3)C[C@H]2/C=C\CCCCC[C@H](Nc2nc(-c3ccc(F)cc3)cs2)C(=O)N2C[C@H](OC(=O)N3Cc4cccc(F)c4C3)C[C@@H]12 [Compound 208] | < 100 nM | < 100 nM
27 | O=C(N[C@H]1CCCCC/C=C\[C@@H]2C[C@@]2(C(=O)NS(=O)(=O)c2ccc(Cl)cc2)NC(=O)[C@@H]2C[C@@H](OC(=O)N3Cc4cccc(F)c4C3)CN2C1=O)OC1CCOC1 (stereo partly drawn) [Compound 334] | < 100 nM | < 100 nM
28 | Cc1ccc(S(=O)(=O)NC(=O)[C@@]23C[C@H]2/C=C\CCCCC[C@H](NC(=O)OC(C)(C)C)C(=O)N2C[C@H](OC(=O)N4Cc5cccc(F)c5C4)C[C@H]2C(=O)N3)c(C)c1 [Compound 355] | < 100 nM | < 100 nM
29 | CC(C)(C)OC(=O)N[C@H]1CCCCC/C=C\[C@@H]2C[C@@]2(C(=O)NOc2ccccc2)NC(=O)[C@@H]2C[C@@H](OC(=O)N3Cc4cccc(F)c4C3)CN2C1=O [Compound 711] | < 100 nM | 1000 to 10000 nM
30 | CC(C)COC(=O)N[C@H]1CCCCC/C=C\[C@@H]2C[C@@]2(C(=O)NS(=O)(=O)C2CC2)NC(=O)[C@@H]2C[C@@H](OC(=O)N3Cc4cccc(F)c4C3)CN2C1=O [Compound 436] | < 100 nM | < 100 nM
31 | CC(C)CONC(=O)[C@@]12C[C@H]1/C=C\CCCCC[C@H](NC(=O)OC(C)(C)C)C(=O)N1C[C@H](OC(=O)N3Cc4cccc(F)c4C3)C[C@H]1C(=O)N2 [Compound 719] | < 100 nM | < 100 nM
32 | CC(C)(C)OC(=O)N[C@H]1CCCCC/C=C\[C@@H]2C[C@@]2(C(=O)NOCc2ccc(C(F)(F)F)cc2)NC(=O)[C@@H]2C[C@@H](OC(=O)N3Cc4cccc(F)c4C3)CN2C1=O [Compound 105, (2R,6S,13aS,14aR,16aS,Z)-6-(tert-butoxycarbonylamino)-5,16-dioxo-14a-(4-(trifluoromethyl)benzyloxycarbamoyl)-1,2,3,5,6,7,8,9,10,11,13a,14,14a,15,16,16a-hexadecahydrocyclopropa[e]pyrrolo[1,2-a][1,4]diazacyclopentadecin-2-yl 4-fluoroisoindoline-2-carboxylate] | < 100 nM | 10000 to 50000 nM
33 | O=C(N[C@H]1CCCCC/C=C\[C@@H]2C[C@@]2(C(=O)NS(=O)(=O)C2CC2)NC(=O)[C@@H]2C[C@@H](OC(=O)N3Cc4cccc(F)c4C3)CN2C1=O)OCC1CCC1 [Compound 430] | < 100 nM | < 100 nM
34 | CC(C)CS(=O)(=O)NC(=O)[C@@]12C[C@H]1CCCCCCC[C@H](NC(=O)OC(C)(C)C)C(=O)N1C[C@H](OC(=O)N3Cc4cccc(F)c4C3)C[C@H]1C(=O)N2 [Compound 656] | < 100 nM | < 100 nM
35 | CC(C)(C)OC(=O)N[C@H]1CCCCC/C=C\[C@@H]2C[C@@]2(C(=O)NS(=O)(=O)c2ccc(F)cc2F)NC(=O)[C@@H]2C[C@@H](OC(=O)N3Cc4cccc(F)c4C3)CN2C1=O [Compound 310] | < 100 nM | < 100 nM
36 | CC(C)(C)OC(=O)N[C@H]1CCCCC/C=C\[C@@H]2C[C@@]2(C(=O)NS(=O)(=O)Cc2ccc(F)c(F)c2)NC(=O)[C@@H]2C[C@@H](OC(=O)N3Cc4cccc(F)c4C3)CN2C1=O [Compound 522] | < 100 nM | 100 to 1000 nM
